In ChEMBL document CHEMBL1201862, “PubChem BioAssay data set” (2004):
The source made the active and inactive calls.

Columns and labels:
[1] = molecular target: Voltage-dependent T-type calcium channel subunit alpha-1H (Homo sapiens, UniProt O95180); type: functional;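 further: channel activity triggered by adding a high calcium stimulation buffer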
[2] = molecular target: Sphingosine 1-phosphate receptor 2 (Homo sapiens, UniProt O95136); assay: Dose Response Cell Based Assay for Agonists of the S1P2 Receptor. [Related pubchem assays: 729, 736, 843 ]; type: functional
[3] = A2780 cell killing – plate reader, dry powder samples, cytotoxicity control, dose response (AID 743046); type: functional, cell-based
[4] = OVCAR-3 cell viability loss – plate reader, dry powder samples, PAX8 inhibitor project, dose response (AID 743044); type: functional, cell-based
[5] = OVCAR8 cell viability loss – plate reader, dry powder samples, PAX8 project, dose response (AID 743197); type: functional, cell-based; settings: OVCAR-8
Paired box protein Pax-8 = Paired box protein Pax-8 (Homo sapiens, UniProt Q06710); assay: PAX8 transcriptional activity inhibition in RMG-I – RMG-I cells, luciferase, cherry-pick, dose response (AID 687027); type: functional, cell-based;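 further: luciferase reporter driven by Pax8 target thyroperoxidase promoter measured by SteadyGlo luminescence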
[6] = IGROV1 cell killing – plate reader, dry powder samples, PAX8 inhibitor project, dose response (AID 743043); type: functional, cell-based; settings: IGROV-1
[7] = toxicity toward immortalized ovarian surface epithelium – cell-based, plate reader, dry powder samples, cytotoxicity control for PAX8 inhibitor project, dose response (AID 743045); type: functional
[8] = molecular target: T1, Short transient receptor potential channel 4 (Mus musculus, UniProt Q9QUQ5); assay: block of DAMGO-driven TRPC4 calcium entry – cell-based, HEK293 TRPC4/mu-opioid, Fluo-4 calcium, dose response (AID 434942); type: functional;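 further: potency of inhibitors blocking the TRPC4 calcium response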
T1 sequence (Q9QUQ5 whole entry): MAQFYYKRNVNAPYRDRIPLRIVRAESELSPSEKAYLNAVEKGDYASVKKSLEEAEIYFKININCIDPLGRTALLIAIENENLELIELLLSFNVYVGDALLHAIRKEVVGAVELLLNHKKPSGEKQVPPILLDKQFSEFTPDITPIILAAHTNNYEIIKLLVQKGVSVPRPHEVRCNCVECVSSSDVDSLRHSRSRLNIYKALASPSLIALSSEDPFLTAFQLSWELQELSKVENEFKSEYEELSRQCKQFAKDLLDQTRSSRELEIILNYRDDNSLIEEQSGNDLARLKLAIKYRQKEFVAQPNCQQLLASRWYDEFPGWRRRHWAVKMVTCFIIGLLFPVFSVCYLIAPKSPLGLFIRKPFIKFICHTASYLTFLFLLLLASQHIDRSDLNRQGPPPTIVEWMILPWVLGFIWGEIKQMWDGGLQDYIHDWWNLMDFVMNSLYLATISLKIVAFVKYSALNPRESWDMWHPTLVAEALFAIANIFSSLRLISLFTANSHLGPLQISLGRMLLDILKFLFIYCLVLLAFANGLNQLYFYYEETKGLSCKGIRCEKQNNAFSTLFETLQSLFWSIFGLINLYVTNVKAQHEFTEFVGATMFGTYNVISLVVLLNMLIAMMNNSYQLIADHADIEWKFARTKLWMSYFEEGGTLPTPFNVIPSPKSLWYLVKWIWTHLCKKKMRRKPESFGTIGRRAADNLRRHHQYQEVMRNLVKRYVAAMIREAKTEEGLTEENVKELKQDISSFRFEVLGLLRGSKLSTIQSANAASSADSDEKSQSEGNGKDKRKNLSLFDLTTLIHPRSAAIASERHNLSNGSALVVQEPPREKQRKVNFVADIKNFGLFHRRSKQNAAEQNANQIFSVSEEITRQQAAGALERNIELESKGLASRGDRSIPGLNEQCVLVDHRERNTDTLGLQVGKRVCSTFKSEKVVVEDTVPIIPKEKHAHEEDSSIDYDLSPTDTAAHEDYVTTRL

[9] = viability loss in Vero cells – cytotoxicity control for Vif-APOBEC3G degradation inhibitor project, dose response (AID 1117358); type: functional; settings: Vero
[10] = NIH3T3 cell viability loss – ATP luminescence, mouse fibroblasts, counter-screen, dose response (AID 2010); type: functional, cell-based;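 further: cells exposed to compound for about 90 hours before reading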
[11] = molecular target: T2, Serine/threonine-protein phosphatase (Candida dubliniensis (strain CD36 / CBS 7987 / NCPF 3949 / NRRLY-17841) (Yeast), UniProt B9W6M3); assay: blockers of CaCl2-induced CDRE-lacZ signaling – S. cerevisiae, luminescence, secondary, dose response (AID 2388); type: functional, cell-based;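 further: yeast reporter cells carrying a calcineurin-responsive lacZ construct stimulated with calcium chloride; luminescent beta-galactosidase reporter signal in whole cells rather than isolated phosphatase activity; potency for inhibition where a drop in reporter signal means calcineurin blockade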
T2 sequence (B9W6M3 whole entry): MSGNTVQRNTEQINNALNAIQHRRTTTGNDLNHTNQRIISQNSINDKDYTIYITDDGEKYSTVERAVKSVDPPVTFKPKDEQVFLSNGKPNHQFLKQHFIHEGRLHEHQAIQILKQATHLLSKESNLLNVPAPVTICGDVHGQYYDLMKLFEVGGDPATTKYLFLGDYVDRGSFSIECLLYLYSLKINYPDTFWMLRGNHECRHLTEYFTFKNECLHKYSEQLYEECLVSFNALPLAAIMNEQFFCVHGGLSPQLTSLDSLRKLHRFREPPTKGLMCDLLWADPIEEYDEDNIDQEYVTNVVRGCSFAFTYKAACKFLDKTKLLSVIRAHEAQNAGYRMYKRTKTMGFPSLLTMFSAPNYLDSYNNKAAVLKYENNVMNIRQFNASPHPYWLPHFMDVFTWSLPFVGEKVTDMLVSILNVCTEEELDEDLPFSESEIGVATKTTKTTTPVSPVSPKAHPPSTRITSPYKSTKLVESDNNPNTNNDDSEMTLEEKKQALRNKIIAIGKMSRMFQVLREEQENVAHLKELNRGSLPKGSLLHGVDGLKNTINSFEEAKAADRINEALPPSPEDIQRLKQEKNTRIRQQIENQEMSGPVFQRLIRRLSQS

[12] = NIH-3T3 fibroblast cytotoxicity, dose response, cytotoxicity control, cell-based, fluorescence, Alamar Blue, secondary assay (AID 2327); type: functional;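 further: NIH-3T3 mouse fibroblasts cultured with fluconazole at 8 µg/mL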
[13] = Trypanosoma cruzi growth suppression in host cells – NIH3T3 host cells, beta-gal luminescence, confirmation (AID 2044); type: functional, cell-based;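 further: intracellular parasites grown in NIH/3T3 mouse fibroblasts as host cells; luminescent beta-galactosidase reporter signal from transgenic T. cruzi replicating inside host cells; inhibitors lower the luminescence signal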
[14] = luciferase reporter signal suppression in cells – H4 neuroglioma cells, luminescence, dose response (AID 1990); type: functional, cell-based
[15] = alpha-synuclein stem-loop luciferase translation blockers – H4 neuroglioma cells, luminescence, confirmation (AID 1988); type: functional, cell-based
[16] = Luminescence Cell-Based Dose Response HTS to Identify Inhibitors of 5'UTR Stem-Loop Driven Prion Protein mRNA Translation in H4 Neuroglioblastoma Cells. [Related pubchem assays: 1827 (Project Summary), 1813 (Primary HTS)]; type: functional
[17] = fluconazole-exposed Candida albicans growth modulators – fluorescence, retest, confirmation (AID 2467); type: functional, cell-based
[18] = molecular target: ATP-dependent molecular chaperone HSP82 (Candida albicans (strain WO-1) (Yeast), UniProt C4YTQ8); assay: steroid-induced GRE reporter decrease in yeast – S. cerevisiae, luminescence, Hsp90 inhibitor project, dose response (AID 2400); type: functional, cell-based;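 further: beta-galactosidase luminescence from glucocorticoid response element reporter as proxy for Hsp90 function; inhibitor potency where signal loss means Hsp90 inhibition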
[19] = molecular target: T3, RNA-binding protein pos-1 (Caenorhabditis elegans, UniProt G5EF15); assay: disruptors of C. elegans POS-1 RNA interaction – biochemical, fluorescence polarization, dose response (AID 1964);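 further: purified POS-1 fused to maltose binding protein made in E. coli; potency of compounds blocking POS-1 binding to fluorescent RNA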
T3 sequence (G5EF15 whole entry): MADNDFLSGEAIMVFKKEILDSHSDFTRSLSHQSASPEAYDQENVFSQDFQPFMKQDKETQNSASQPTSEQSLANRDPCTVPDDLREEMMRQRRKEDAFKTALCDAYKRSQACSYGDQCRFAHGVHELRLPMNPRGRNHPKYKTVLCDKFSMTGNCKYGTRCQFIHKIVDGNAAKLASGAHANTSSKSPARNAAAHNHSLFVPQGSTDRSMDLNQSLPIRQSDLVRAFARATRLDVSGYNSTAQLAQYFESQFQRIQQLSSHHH

[20] = molecular target: T4, Zinc finger protein mex-5 (Caenorhabditis elegans, UniProt Q9XUB2); assay: potency of MEX-5 RNA-binding blockers – biochemical, C. elegans, fluorescence polarization, dose response (AID 1960)
T4 sequence (Q9XUB2 whole entry): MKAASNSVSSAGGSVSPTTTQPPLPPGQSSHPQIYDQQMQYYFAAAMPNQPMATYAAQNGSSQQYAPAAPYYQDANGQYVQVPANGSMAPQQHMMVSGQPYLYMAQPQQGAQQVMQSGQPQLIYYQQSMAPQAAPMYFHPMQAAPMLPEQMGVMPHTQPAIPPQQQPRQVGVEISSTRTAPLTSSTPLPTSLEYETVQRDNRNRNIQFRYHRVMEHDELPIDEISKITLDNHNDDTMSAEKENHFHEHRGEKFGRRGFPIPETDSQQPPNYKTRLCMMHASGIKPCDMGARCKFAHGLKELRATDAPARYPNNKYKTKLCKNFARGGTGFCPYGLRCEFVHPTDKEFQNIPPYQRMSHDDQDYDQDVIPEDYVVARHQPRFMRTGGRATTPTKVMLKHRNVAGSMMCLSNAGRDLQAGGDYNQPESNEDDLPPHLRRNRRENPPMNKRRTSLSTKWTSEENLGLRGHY

[21] = M. tuberculosis H37Rv growth inhibitors, H37Rv strain (AID 1626); type: functional
[22] = growth inhibition of PfATP4-mutant resistant parasites – NITD609-resistant line, SYBR Green, dry powder, dose response (AID 1159571); type: functional, cell-based;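 further: parasites synchronized at ring stage by sorbitol before testing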
[23] = growth inhibition of yeast DHODH-expressing 3D7 parasites – SYBR Green, dry powder samples, dose response (AID 1159570); type: functional, cell-based;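 further: parasite growth measured after 72 hours of compound exposure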
[24] = P. falciparum Dd2 growth inhibitors, dose response, SYBR Green, cherry-picked samples (AID 1159567); type: functional, cell-based
[25] = toxicity to human HepG2 hepatoma cells – cell-based, plate reader, dry powder samples, cytotoxicity control, dose response (AID 1159569); type: functional;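 further: inhibitor potency with signal falling toward the positive control level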
[26] = Dd2 malaria parasite growth inhibition potency – SYBR Green, dry powder samples, dose response (AID 1159566); type: functional, cell-based;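 further: potency for growth inhibition with lower SYBR green DNA signal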
Estrogen receptor beta = Estrogen receptor beta (Homo sapiens, UniProt Q92731);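 further: recombinant ER-beta bound to coactivator SRC1 peptide in presence of estradiol agonist; inhibitors block coactivator peptide binding and lower the FRET signal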
Sequence of Estrogen receptor beta (Q92731 whole entry): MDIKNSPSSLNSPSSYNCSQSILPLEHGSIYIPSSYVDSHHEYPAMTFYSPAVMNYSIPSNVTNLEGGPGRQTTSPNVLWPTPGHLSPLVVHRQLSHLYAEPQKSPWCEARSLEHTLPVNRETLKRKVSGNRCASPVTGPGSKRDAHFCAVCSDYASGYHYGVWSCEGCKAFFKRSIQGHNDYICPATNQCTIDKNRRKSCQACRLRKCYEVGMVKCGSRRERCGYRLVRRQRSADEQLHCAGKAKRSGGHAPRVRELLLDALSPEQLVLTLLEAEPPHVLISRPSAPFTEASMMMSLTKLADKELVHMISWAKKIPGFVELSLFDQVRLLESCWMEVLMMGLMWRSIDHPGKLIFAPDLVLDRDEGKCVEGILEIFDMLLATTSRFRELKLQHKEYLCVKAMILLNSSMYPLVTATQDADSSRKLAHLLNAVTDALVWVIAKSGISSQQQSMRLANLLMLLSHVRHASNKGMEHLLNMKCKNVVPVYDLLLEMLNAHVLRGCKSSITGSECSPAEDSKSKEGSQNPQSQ

Sequence of Sphingosine 1-phosphate receptor 2 (O95136 whole entry): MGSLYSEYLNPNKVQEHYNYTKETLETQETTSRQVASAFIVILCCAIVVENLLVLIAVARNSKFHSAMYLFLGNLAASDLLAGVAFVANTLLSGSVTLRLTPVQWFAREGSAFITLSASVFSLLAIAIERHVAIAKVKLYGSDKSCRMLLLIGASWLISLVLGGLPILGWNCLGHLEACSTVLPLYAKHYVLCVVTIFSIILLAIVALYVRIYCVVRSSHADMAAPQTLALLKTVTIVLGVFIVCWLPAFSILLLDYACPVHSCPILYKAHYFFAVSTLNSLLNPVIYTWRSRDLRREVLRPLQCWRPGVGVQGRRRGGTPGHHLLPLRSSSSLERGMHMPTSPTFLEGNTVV
Sequence of Voltage-dependent T-type calcium channel subunit alpha-1H (O95180 whole entry): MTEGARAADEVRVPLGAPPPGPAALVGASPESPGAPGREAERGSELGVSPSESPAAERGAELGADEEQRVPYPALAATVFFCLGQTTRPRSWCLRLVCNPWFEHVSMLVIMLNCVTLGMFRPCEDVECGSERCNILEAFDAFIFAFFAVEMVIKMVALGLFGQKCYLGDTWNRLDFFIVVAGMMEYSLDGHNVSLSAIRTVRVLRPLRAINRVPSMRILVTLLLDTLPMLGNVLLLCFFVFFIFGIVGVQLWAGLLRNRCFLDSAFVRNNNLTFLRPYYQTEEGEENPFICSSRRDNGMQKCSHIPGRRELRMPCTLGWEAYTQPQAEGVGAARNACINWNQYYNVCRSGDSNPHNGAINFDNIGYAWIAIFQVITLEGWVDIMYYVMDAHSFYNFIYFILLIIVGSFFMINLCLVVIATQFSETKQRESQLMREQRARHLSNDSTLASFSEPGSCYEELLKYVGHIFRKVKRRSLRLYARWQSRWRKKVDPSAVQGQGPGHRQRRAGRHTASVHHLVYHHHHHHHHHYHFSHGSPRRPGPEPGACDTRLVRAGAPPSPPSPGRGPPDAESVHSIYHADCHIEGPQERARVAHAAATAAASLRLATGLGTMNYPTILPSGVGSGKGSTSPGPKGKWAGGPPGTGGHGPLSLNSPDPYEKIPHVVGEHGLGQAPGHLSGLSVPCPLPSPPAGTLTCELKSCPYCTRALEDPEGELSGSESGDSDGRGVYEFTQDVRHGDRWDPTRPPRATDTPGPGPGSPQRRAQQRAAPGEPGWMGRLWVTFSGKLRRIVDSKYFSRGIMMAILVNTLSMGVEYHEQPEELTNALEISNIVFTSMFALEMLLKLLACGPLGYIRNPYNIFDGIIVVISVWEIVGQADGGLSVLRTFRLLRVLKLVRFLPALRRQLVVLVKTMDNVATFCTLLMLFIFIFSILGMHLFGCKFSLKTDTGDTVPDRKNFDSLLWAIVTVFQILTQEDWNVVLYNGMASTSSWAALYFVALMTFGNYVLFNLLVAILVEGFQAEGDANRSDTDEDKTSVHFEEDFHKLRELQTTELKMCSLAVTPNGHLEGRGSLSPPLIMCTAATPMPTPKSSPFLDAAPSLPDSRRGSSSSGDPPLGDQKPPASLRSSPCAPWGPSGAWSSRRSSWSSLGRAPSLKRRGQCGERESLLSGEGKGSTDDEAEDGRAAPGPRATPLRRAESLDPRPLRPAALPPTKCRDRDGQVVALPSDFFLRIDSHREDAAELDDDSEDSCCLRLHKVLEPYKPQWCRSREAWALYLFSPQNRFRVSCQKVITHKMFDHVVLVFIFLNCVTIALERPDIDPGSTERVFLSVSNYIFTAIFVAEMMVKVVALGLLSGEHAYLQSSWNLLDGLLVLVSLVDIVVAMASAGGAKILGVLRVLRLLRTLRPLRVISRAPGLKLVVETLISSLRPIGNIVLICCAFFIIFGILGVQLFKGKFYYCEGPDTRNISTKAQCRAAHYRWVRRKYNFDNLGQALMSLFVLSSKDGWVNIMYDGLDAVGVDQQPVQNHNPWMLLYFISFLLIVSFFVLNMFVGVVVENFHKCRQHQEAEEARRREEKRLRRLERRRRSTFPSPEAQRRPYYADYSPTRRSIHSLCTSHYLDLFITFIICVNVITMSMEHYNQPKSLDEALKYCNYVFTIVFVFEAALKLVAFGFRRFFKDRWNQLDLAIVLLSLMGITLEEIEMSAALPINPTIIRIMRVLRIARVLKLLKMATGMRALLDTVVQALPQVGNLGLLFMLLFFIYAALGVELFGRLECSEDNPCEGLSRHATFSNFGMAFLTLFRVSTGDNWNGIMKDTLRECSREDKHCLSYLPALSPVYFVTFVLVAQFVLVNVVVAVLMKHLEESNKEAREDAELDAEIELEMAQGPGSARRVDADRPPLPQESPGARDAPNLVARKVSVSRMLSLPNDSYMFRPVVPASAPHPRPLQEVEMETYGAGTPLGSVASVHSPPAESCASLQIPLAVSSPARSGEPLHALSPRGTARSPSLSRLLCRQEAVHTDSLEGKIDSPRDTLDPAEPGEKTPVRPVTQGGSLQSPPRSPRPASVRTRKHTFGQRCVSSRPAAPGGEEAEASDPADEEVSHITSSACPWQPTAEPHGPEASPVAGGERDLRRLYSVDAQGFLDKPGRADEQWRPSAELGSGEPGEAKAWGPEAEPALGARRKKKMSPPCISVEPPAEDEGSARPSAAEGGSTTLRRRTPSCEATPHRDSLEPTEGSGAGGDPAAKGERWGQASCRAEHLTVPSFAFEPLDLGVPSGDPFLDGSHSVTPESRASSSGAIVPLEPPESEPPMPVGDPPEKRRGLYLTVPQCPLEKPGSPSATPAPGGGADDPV
Sequence of ATP-dependent molecular chaperone HSP82 (C4YTQ8 whole entry, the tested form may be a part): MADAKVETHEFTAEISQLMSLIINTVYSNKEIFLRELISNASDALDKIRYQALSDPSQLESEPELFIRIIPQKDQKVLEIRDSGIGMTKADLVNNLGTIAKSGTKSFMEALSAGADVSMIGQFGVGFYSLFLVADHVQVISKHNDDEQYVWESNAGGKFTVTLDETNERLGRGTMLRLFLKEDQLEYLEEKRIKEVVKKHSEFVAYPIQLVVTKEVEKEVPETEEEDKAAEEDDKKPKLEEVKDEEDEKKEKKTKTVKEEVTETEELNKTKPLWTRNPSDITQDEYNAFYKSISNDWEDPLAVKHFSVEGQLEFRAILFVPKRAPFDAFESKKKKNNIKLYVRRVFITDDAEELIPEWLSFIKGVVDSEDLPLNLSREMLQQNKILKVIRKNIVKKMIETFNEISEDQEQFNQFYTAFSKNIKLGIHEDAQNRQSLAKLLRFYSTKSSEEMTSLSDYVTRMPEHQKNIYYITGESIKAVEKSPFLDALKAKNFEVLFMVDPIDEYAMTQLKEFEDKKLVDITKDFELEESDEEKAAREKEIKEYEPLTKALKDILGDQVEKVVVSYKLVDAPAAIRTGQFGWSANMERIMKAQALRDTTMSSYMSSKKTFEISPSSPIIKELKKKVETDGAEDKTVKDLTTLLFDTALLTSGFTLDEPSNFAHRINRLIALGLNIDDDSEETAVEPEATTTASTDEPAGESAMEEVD
Sequence of Paired box protein Pax-8 (Q06710 whole entry): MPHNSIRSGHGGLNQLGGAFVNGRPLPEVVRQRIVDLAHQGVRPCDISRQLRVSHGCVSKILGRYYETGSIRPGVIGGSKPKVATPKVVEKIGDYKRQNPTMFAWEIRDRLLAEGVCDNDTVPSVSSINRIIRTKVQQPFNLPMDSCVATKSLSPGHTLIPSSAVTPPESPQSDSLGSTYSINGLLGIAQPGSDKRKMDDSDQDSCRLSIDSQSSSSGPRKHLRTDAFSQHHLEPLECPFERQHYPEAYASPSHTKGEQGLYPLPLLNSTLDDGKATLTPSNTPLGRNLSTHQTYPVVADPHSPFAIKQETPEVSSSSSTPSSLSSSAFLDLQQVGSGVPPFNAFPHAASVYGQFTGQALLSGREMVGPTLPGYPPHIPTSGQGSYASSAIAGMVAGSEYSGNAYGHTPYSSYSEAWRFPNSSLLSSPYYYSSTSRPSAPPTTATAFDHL

## O=C(Cc1c[nH]c2ccccc12)Nc1nc2ccccc2[nH]1
[1]
  EC50: 6.91 µM (active)
[2]
  EC50: > 50 µM (not active)

## C[C@@H]1CCCCO[C@@H](CN(C)Cc2ccc(Cl)c(Cl)c2)[C@H](C)CN([C@@H](C)CO)C(=O)c2cc(NC(=O)CCC(F)(F)F)ccc2O1
[3]
  AC50: 27.3 µM (active)
[4]
  AC50: 16.1 µM (active)
[5]
  AC50: 17.1 µM (active)
Paired box protein Pax-8
  AC50: 9.32 µM (active)
[6]
  AC50: 21.9 µM (active)
[7]
  AC50: 23.4 µM (active)

## COc1cc(CNCCc2ccc(F)cc2)ccc1OCc1ccc(Cl)nc1
[8]
  EC50: 1.88 µM (active)
[9]
  CC50: 26.1 µM (active)

## CC(=O)O/N=C/c1c(N2CCOCC2)n(C)c2ccccc12
[10]
  EC50: 4.45 µM (active)
[11]
  EC50: > 180 µM (inactive)
[12]
  EC50: > 160 µM (inactive)
[13]
  EC50: 1.25 µM (active)
[14]
  EC50: > 120 µM (not active)
[9]
  CC50: > 40 µM (active)
[15]
  EC50: 38.6 µM (active)
[16]
  EC50: > 120 µM (not active)
[17]
  EC50: 0.145 µM (active)
[18]
  EC50: > 160 µM (inactive)

## CCOC(=O)c1ccc(N/C=C2\CCCCC2=O)cc1
[19]
  EC50: > 300 µM (not active)
[20]
  EC50: > 300 µM (not active)
[21]
  IC50: > 100 µM (active)

## Cc1nc(NC(=O)CSc2nnc(-c3ccc4c(c3)OCO4)o2)c(Cl)cc1Cl
[21]
  IC50: > 100 µM (active)

## C[C@H]1CN([C@@H](C)CO)C(=O)c2ccccc2-c2ccccc2CO[C@H]1CN(C)Cc1ccc(-c2ccccc2)cc1
[22]
  AC50: 1.19 µM (active)
[23]
  AC50: 3.92 µM (active)
[24]
  AC50: 1.59 µM (active)
[25]
  AC50: 22.2 µM (active)
[26]
  AC50: 1.11 µM (active)

## Cc1cnc(C(=O)OCC(=O)c2csc(N3CCCCC3)n2)cn1
Estrogen receptor beta
  IC50: 5.81 µM (active)
